In ChEMBL document CHEMBL1201862, “PubChem BioAssay data set” (2004):
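Cells were grown in 96-well plates and exposed to each compound for 48 hours at five concentrations; endpoints were interpolated linearly between bracketing concentrations, or set to the highest concentration if not reached. GI50: concentration for 50% inhibition of growth.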 Calls of active or inactive are those of the source. No stated cut-off is given here; in the data, active = GI50 up to about 1.1 µM and inactive = higher.

How the values were obtained:
Test in all cases: NCI anticancer screen, dose series, 48 h
[1] = tested on: DMS-273
[2] = tested on: LXFL 529
[3] = tested on: RXF 631
[4] = tested on: DMS-114
[5] = tested on: HOP-18
[6] = tested on: DLD-1
[7] = tested on: XF498
[8] = tested on: SNB-78
[9] = tested on: KM-20L2

SMILES | GI50 [1] | GI50 [2] | GI50 [3] | GI50 [4] | GI50 [5] | GI50 [6] | GI50 [7] | GI50 [8] | GI50 [9]
Cn1cnnc1Sc1c([N+](=O)[O-])ncn1C | > 100 µM (inactive) | 20 µM (inactive) | > 100 µM (inactive) | > 100 µM (inactive) | 13.5 µM (inactive) | 38.5 µM (inactive) | > 100 µM (inactive) | 45.9 µM (inactive) | –
NC(=O)c1cccc([N+](=O)[O-])c1 | > 100 µM (inactive) | > 100 µM (inactive) | – | > 100 µM (inactive) | – | > 100 µM (inactive) | > 100 µM (inactive) | > 100 µM (inactive) | > 100 µM (inactive)
O=C1OC(c2ccc(Cl)c3ccccc23)c2ccccc21 (configuration not stated) | – | – | > 100 µM (inactive) | 71.3 µM (inactive) | > 100 µM (inactive) | – | > 100 µM (inactive) | > 100 µM (inactive) | 64.3 µM (inactive)
c1ccc(CN(Cn2cccn2)Cn2cccn2)nc1 | 61.7 µM (inactive) | > 100 µM (inactive) | > 100 µM (inactive) | 78.7 µM (inactive) | – | 87.3 µM (inactive) | > 100 µM (inactive) | > 100 µM (inactive) | > 100 µM (inactive)
CCOc1ccc(/C=C(\Cl)c2ccc(OC)c(OC)c2)cc1 | 22 µM (inactive) | 35.9 µM (inactive) | – | 26.6 µM (inactive) | 57.9 µM (inactive) | 22.5 µM (inactive) | > 100 µM (inactive) | 89.5 µM (inactive) | 16.7 µM (inactive)
CC1=C2C(=O)C(C)(C)C=C2C(=O)[C@](C)(O)C12CC2 [DEHYDROILLUDIN M] | 0.282 µM (active) | 0.698 µM (active) | – | – | > 1 µM (active) | > 0.791 µM (active) | 0.664 µM (active) | 0.522 µM (active) | 0.527 µM (active)
COc1cc2c(cc1OC)C(O)[C@H](Br)C(C)(C)O2 (some centres not stated) | > 100 µM (inactive) | > 100 µM (inactive) | – | > 100 µM (inactive) | > 100 µM (inactive) | > 100 µM (inactive) | > 100 µM (inactive) | – | > 100 µM (inactive)
N#CC(C(=O)/C(=N\NC(N)=O)C(C#N)c1ccccc1)c1ccccc1 (configuration not stated) | > 100 µM (inactive) | > 100 µM (inactive) | > 100 µM (inactive) | – | – | > 100 µM (inactive) | – | > 100 µM (inactive) | > 100 µM (inactive)
N#CCCN(CCC#N)c1ccc(/C=C(/NC(=O)c2cc([N+](=O)[O-])ccc2Cl)C(=O)N=[N+]=[N-])cc1 | > 100 µM (inactive) | > 100 µM (inactive) | > 100 µM (inactive) | > 100 µM (inactive) | > 100 µM (inactive) | > 100 µM (inactive) | – | > 100 µM (inactive) | > 100 µM (inactive)
N#CC(C(=O)/C(=N/NC(=O)c1ccccc1O)C(C#N)c1ccc(Cl)cc1)c1ccc(Cl)cc1 (configuration not stated) | – | 12.6 µM (inactive) | – | 23.8 µM (inactive) | 11.5 µM (inactive) | 11.9 µM (inactive) | 13.5 µM (inactive) | 19.5 µM (inactive) | 13.7 µM (inactive)
CCN(CC)CCNc1ccc2nnn3c4ccc(C)cc4c(=O)c1c23 | – | 12 µM (inactive) | 5.28 µM (inactive) | 9.12 µM (inactive) | – | 6.08 µM (inactive) | – | 10.9 µM (inactive) | 6.32 µM (inactive)
COc1cc2c(cc1OC)C(CC(=O)NN=C(C)C)NCC2 (configuration not stated) | > 100 µM (inactive) | > 100 µM (inactive) | – | > 100 µM (inactive) | > 100 µM (inactive) | > 100 µM (inactive) | 96.6 µM (inactive) | > 100 µM (inactive) | > 100 µM (inactive)
COc1cc2cc3c4c(cc(OC)c(OC)c4c2cc1OC)CCN3C(=O)OCCBr | 50.2 µM (inactive) | – | – | – | – | 45.5 µM (inactive) | > 100 µM (inactive) | > 100 µM (inactive) | 43.4 µM (inactive)
O=S(=O)(c1ccccc1)C1CN2OC1(S(=O)(=O)c1ccccc1)CC21CCCCC1 (configuration not stated) | 82.6 µM (inactive) | > 100 µM (inactive) | > 100 µM (inactive) | > 100 µM (inactive) | – | > 100 µM (inactive) | 32.3 µM (inactive) | – | > 100 µM (inactive)
CC(C)N(C(C)C)P(OCCC#N)OC1CC(n2cnc3c(=O)[nH]cnc32)OC1COC(=O)NCCCCCCNC(=O)OC(C)(C)c1ccc(-c2ccccc2)cc1 (configuration not stated) | 17.4 µM (inactive) | 17.5 µM (inactive) | – | 21.8 µM (inactive) | 92 µM (inactive) | 43.3 µM (inactive) | – | 30.5 µM (inactive) | 43.2 µM (inactive)
CC(C)(C)C1CCC(CI)(N=[N+]=[N-])CC1 (configuration not stated) | > 100 µM (inactive) | > 100 µM (inactive) | – | > 100 µM (inactive) | > 100 µM (inactive) | > 100 µM (inactive) | 42.5 µM (inactive) | > 100 µM (inactive) | > 100 µM (inactive)
COC(=O)C1CC/C(=N/C2c3ccccc3-c3ccccc32)N1 (configuration not stated) | > 100 µM (inactive) | > 100 µM (inactive) | > 100 µM (inactive) | 43.8 µM (inactive) | > 100 µM (inactive) | > 100 µM (inactive) | > 100 µM (inactive) | > 100 µM (inactive) | > 100 µM (inactive)
O=C1C2C(C(=O)N1c1ccccc1)C1(Br)c3ccccc3C2(Br)C2C(=O)N(c3ccccc3)C(=O)C21 (configuration not stated) | 11.7 µM (inactive) | 7.62 µM (inactive) | > 100 µM (inactive) | > 31.6 µM (inactive) | 18.1 µM (inactive) | 16.8 µM (inactive) | 29.2 µM (inactive) | 12.5 µM (inactive) | 24.5 µM (inactive)
C/C1=N\[N-]C(=O)c2ccccc2C(=O)N/N=C(\C)c2cccc1n2.O=[N+]([O-])[O-].[Zn+2] | – | 44.2 µM (inactive) | – | > 100 µM (inactive) | > 100 µM (inactive) | > 100 µM (inactive) | – | > 100 µM (inactive) | > 100 µM (inactive)
CCCCCCCCCC1CC(=O)OC23CCCC(=O)C12O3 (configuration not stated) | > 100 µM (inactive) | > 100 µM (inactive) | – | 71.6 µM (inactive) | 62.5 µM (inactive) | 98.6 µM (inactive) | > 100 µM (inactive) | 60.8 µM (inactive) | > 100 µM (inactive)
COc1ccc(/C=C/C(=O)c2sc(-n3nc(-c4ccccc4)cc3-c3ccccc3)nc2C)cc1OC | 36.6 µM (inactive) | 30.3 µM (inactive) | 24.5 µM (inactive) | 28.1 µM (inactive) | > 100 µM (inactive) | 21.8 µM (inactive) | 49.3 µM (inactive) | – | 20.9 µM (inactive)
Nc1ccccc1C(=O)C(Br)C(Br)c1ccc2c(c1)OCO2 (configuration not stated) | 15.1 µM (inactive) | 16.7 µM (inactive) | – | 18.2 µM (inactive) | 16.7 µM (inactive) | 33.6 µM (inactive) | 16.7 µM (inactive) | 24.3 µM (inactive) | 17.2 µM (inactive)
O=C1c2c(O)cccc2C(C(=O)CCCC(=O)C2c3cccc(O)c3C(=O)c3c(O)cccc32)c2cccc(O)c21 | 0.437 µM (active) | 0.139 µM (active) | 0.578 µM (active) | 0.116 µM (active) | 0.378 µM (active) | 0.388 µM (active) | 0.0752 µM (active) | 0.213 µM (active) | 1.19 µM (inactive)
NS(=O)(=O)OCCCCCCCOS(N)(=O)=O | 68.7 µM (inactive) | – | – | 130 µM (inactive) | 689 µM (inactive) | 495 µM (inactive) | 54.8 µM (inactive) | 526 µM (inactive) | 488 µM (inactive)
COc1ccc2c(c1)CCC(OS(=O)(=O)CC13CCC(CC1=O)C3(C)C)C2=O (configuration not stated) | 26.4 µM (inactive) | 29.8 µM (inactive) | – | 27.5 µM (inactive) | 30.1 µM (inactive) | 31.3 µM (inactive) | 31.2 µM (inactive) | – | 19.5 µM (inactive)
COc1ccccc1NC(=O)CC(=O)n1nc(C)c(/N=N/c2ccccc2F)c1C | > 100 µM (inactive) | > 100 µM (inactive) | – | > 100 µM (inactive) | > 100 µM (inactive) | > 100 µM (inactive) | 40 µM (inactive) | 17.3 µM (inactive) | > 100 µM (inactive)
